Data taken from paper PMC6692352, “DF2726A, a new IL-8 signalling inhibitor, is able to counteract chemotherapy-induced neuropathic pain” (Scientific Reports, 2019).

What was measured:
[1] = system: p-STAT3; assay: p-STAT3 western blotting in F11-derived neurons; assay type: cell-based; conditions: 24 h
Experimental: Following neuronal differentiation, neurons were treated for 24 h with DF2726A (1 μM final concentration), oxaliplatin (Sigma-Aldrich; 20 µM final concentration), or the combination of the two molecules.
Control and treated cells were collected and lysed in ice-cold RIPA buffer (PBS pH 7.4 containing 0.5% sodium deoxycolate, 1% Igepal, 0.1% SDS, 5 mM EDTA, 1% protease and phosphatase inhibitor cocktails; Sigma-Aldrich) as described in[22],[33]. Protein lysates (30 μg) were separated on 8–12% SDS-polyacrilamide gel and electroblotted onto polyvinyldifluoride membrane (PVDF; Sigma-Aldrich). Nonspecific binding sites were blocked by 5% non-fat dry milk (Bio-Rad Laboratories, Hercules, CA, USA) in Tris buffered saline (TBS: 20 mM Tris- HCl, pH 7.4, containing 150 mM NaCl) for 30 min at RT. […] The relative densities of immunoreactive bands were determined and normalized HRP-conjugated β-actin, using ImageJ software. […]

[2] = system: oxaliplatin-induced mechanical allodynia; assay: Oxaliplatin-induced mechanical allodynia (Dynamic Plantar Aesthesiometer); assay type: in vivo, male Wistar rats; conditions: 30 mg/kg os for 24 days; at 14 (P < 0.05) and 21 days (P < 0.01) vs Oxa + saline
Experimental: Behavioural tests were performed on male Wistar rats (200–250 g, Harlan, Italy) housed in the animal care facility at the Department of Pharmacy of the University of Naples Federico II, Italy, as previously described. Animals were housed, in a group of five, in a room with controlled temperature (22 ± 1 °C), humidity (60 ± 10%) and light (12 h per day); food and water were available ad libitum. All animals were weighted on the day of each treatment. All behavioural tests were performed between 09:00 and 17:00 h, and the animals were used only once. Animal care and manipulations were conducted in conformity with International and National law and policies (EU Directive 2010/63/EU for animal experiments, ARRIVE guidelines, and the Basel declaration including the 3R concept). The procedures reported here were approved by the Institutional Committee on the Ethics of Animal Experiments (CVS) of the University of Naples Federico II and by Ministero della Salute under protocol no. 2014-00884607. […]
To assess for changes in sensation or in the development of mechanical allodynia, sensitivity to tactile stimulation was measured using the Dynamic Plantar Aesthesiometer (DPA, Ugo Basile, Italy), which is an automated version of the von Frey hair assessment. […] The means of paw withdrawal (expressed in grams) were calculated from an average of four separate measurements. […]

[3] = Metabolic stability, human; assay type: in vitro ADME; conditions: Test conc: 2.5 µM
From the text: Table 1 Physicochemical and in Vitro ADME Properties of DF2726A. | column: DF2726A

In the case of `CC(C)(C(=O)O)c1ccc(Nc2nc(C(F)(F)F)cs2)cc1` [DF2726A], the “p-STAT3 levels, oxaliplatin-treated neurons” value ([1]; DF2726A 1 µM + oxaliplatin 20 µM) is reported as “counteracted this effect”, the “p-STAT3 levels, paclitaxel-treated neurons” value ([1]; DF2726A + paclitaxel 10 nM) is reported as “counteracted this effect” and the “Effect on oxaliplatin-induced mechanical allodynia (paw withdrawal threshold, DPA test)” value [2] is reported as “significant anti-allodynic effect”. The Metabolic stability human [3] was 7.0 µL/min/10^6 cells.
